{"source": "patent US7585521B2", "about": "“Controlled release ceramic particles, compositions thereof, processes of preparation and methods of use” (Australian Nuclear Science & Technology Organisation, priority 2000, dated 2009)", "key": {"[1]": {"experiment": "Release of dye from sol-gel silica gels/microspheres into demineralised water, UV-visible absorbance", "type": "physicochemical", "protocol": "The release of the dye molecule from the gels was performed in 3 ml of demineralised water and the evolution of the absorbance with time was monitored at a fixed wavelength λmax=485 nm using a UV-visible spectrophotometer (Lambda 40, Perkin Elmer, USA). The wavelength of 485 nm corresponds to the absorbance maximum of Orange II in the visible spectrum.\nThe plots of fraction of dye released versus time (FIG. 1) were obtained by dividing the actual quantity of dye released by the total mass of dye encapsulated in the gel. For the dry gel, this quantity is calculated by dividing the total quantity of dye in the gel rod by the mass of the gel and multiplying it by the mass of the gel sample used in the release experiments. For the wet gel, the fraction released was obtained experimentally from the final absorbance.\nTo study the influence of the temperature on the release rate, a known quantity of gel was immersed in 3 ml of demineralised water and the absorbance was monitored at a fixed wavelength of 485 nm. One sample was kept at ambient temperature (i.e. 22° C.) and two others were maintained at 37° C. and 60° C. in thermostated water baths.\nThe release rates of the Orange II samples were monitored at a fixed wavelength of 485 nm while the release rates of the methyl-violet samples were monitored at 584 nm (corresponding to the absorption peak of methyl-violet in the visible spectrum)."}, "[2]": {"conditions": "spray-dried particles produced from bohemite sols; cited from earlier work"}, "[3]": {"experiment": "Release of cycloheximide and cis-platin from gels, UV absorbance", "type": "physicochemical", "conditions": "release from gels in 3 ml of 0.9% NaCl, 300 nm", "protocol": "The first series of samples was prepared by mixing 5.51 ml of TMOS (37 mmol), 2.67 ml of either drug solutions (148 mmol of H2O) and 6 ml of methanol (148 mmol). 4 ml aliquots of the solutions were transferred to 5 ml screw capped poly-propylene vials and placed in an oven at 60° C. to gel. Once gelation occurred the samples were aged at 60° C. for 7 days. The cap was then removed and the samples were allowed to dry for 3 days at 60° C.\nA second series of samples was prepared by combining 3 ml of TMOS (20 mmol), 2.88 ml of MTMS (20 mmol) and 2.91 ml of the respective drug solution (161 mmol of H2O). These samples were processed as described above.\nThe release of cycloheximide from a known quantity of gel was investigated in 3 ml of demineralised water and the absorbance was monitored at a fixed wavelength, .λmax=201 nm. The release of cis-platin from a known quantity of gel was investigated in 3 ml of 0.9% NaCl and the absorbance was monitored at a fixed wavelength, λmax=300 nm."}, "[4]": {"experiment": "Degradation of cis-platin in silica gels on aging at 60° C., examined by transmission electron microscopy", "type": "physicochemical", "protocol": "The substitution of metal alkoxides by organically modified silicon alkoxides leads to the replacement of the hydroxyl groups at the surface of the pores by organic moieties (e.g. methyl vinyl, glycidyloxypropyl groups). This prevents interaction between the entrapped bio-molecules and the surface, and potential degradation of the active ingredient. This is illustrated by the encapsulation of cis-platin in silica gels.\nA solution containing 20 ml of TMOS (134 mmol), 9.69 ml of cis-platin solution (538 mmol of water) and 21.8 ml of methanol (538 mmol) was stirred for 30 minutes. 4 ml aliquots of the solution were transferred to 5 ml screw capped poly-propylene vials and placed in an oven at 60° C. to gel. Once gelation occurred the samples were aged at 60° C. for 15 days. The cap was then removed and the samples were allowed to dry for 3 days at 60° C.\nAn identical procedure was used to prepare gels from a solution containing 3 ml of TMOS, 2.88 ml of MTMS and 2.91 ml of cis-platin solution.\nAfter 3 days of aging at 60° C. the gels prepared from TMOS started to darken, ultimately yielding a black gel after 15 days aging. […] The two dry gels were subsequently examined by transmission electron microscopy using a JEOL 201 OF field emission gun microscope."}}, "data": [{"compound": "O=S(=O)([O-])c1ccc(N=Nc2c(O)ccc3ccccc23)cc1.[Na+]", "note": "[Orange II, 4-(2-hydroxy-1-napthylazo) benzene sulfonic acid, sodium salt]", "values": [{"measurement": "release rate versus MTMS content", "setting": "[1]; 0-50% of TMOS substituted with MTMS, W=4, D=4", "result": "decrease with increasing MTMS content"}, {"measurement": "release rate versus drying time and temperature", "setting": "[1]; gels W=4, D=0, dried 1, 3 or 7 days at ambient, 60° or 104° C.", "result": "decrease with increasing time and temperature"}, {"measurement": "pH of maximum release rate", "setting": "[1]; gels W=4, D=4, dye solution pH 1-11", "result": 7}, {"measurement": "release rate versus pH, acid catalyst", "setting": "[1]; gels W=4, D=4, synthesised using acid as a catalyst", "result": "increase with increasing pH"}, {"measurement": "release rate versus pH, base catalyst", "setting": "[1]; gels W=4, D=4, synthesised using base as a catalyst", "result": "decrease with increasing pH"}, {"measurement": "release rate versus syneresis time", "setting": "[1]; gels aged at 60° C. for 0-30 days", "result": "increase with syneresis time"}, {"measurement": "release rate of the dye versus W and D", "setting": "[1]; gels with W = 2-8, D = 0-8, release in demineralised water, 485 nm", "result": "increase with increasing W and decreasing D"}, {"measurement": "release rate of microspheres versus drying temperature", "setting": "[1]; microspheres dried from ambient to 100° C. for 2 days", "result": "decreases with increasing drying temperature"}, {"measurement": "release rate versus temperature of the release media", "setting": "[1]; release at 22° C., 37° C. and 60° C. in demineralised water", "result": "increase with increasing temperature"}]}, {"compound": "CN(C)CCCN1c2ccccc2CCc2ccccc21", "note": "[imipramine]", "values": [{"measurement": "release of encapsulated imipramine", "setting": "[2]", "result": "released within five minutes"}]}, {"compound": "methyl violet", "values": [{"measurement": "release rate compared with Orange II", "setting": "[1]; gels W=4, D=4, aged 15 or 30 days at 60° C., monitored at 584 nm", "result": "significantly smaller"}]}, {"compound": "Cis Pt(NH3)2Cl2 [cis-platin]", "values": [{"measurement": "release rate compared with cycloheximide", "setting": "[3]", "result": "greater"}, {"measurement": "reaction of cis-platin with the matrix, MTMS substituted gels", "setting": "[4]; 50% of TMOS substituted by MTMS", "result": "prevents any such precipitation"}, {"measurement": "reaction of cis-platin with the matrix, silica gels", "setting": "[4]; encapsulated in silica gels (TMOS)", "result": "precipitation of metallic platinum nanoparticles"}]}]}
